# According to patent US20100158973A1 (HADASIT MEDICAL RESEARCH SERVICES & DEVELOPMENT LlIMITED, priority 2006, published 2010):
# Values joined by “and” are separate entries in the source; they are usually repeats but may differ in a detail not shown here. Equal entries are not always repeated. “Also recorded” adds a separate entry of the source.
# How the values were obtained:
# [1] = system: SD/Hsd male rats, surgically induced infarct; assay: Histopathology of infarcted hearts (hematoxylin and eosin, Masson trichrome); format: in vivo
# [2] = system: ApoE−/− mice; assay: Plasma triglyceride levels in ApoE−/− mice on high-fat diet; details: 20 IP injections of 5 mg/kg, 12 h fasting
# Experimental: (§1) Twelve- to fourteen-week-old male and female ApoE ApoE^−/− mice on a C57B1/6 background were fed a high-fat diet (Takland adjusted calories, Western-type diet: 2.1% fat, 15% cholesterol, 19.5% casein) for 12 weeks.
# Blood samples were collected in capillary tubes following twelve hours of fasting, and immediately centrifuged for plasma removal.
# (§2) Control mice were injected with Cremophor:ethanol:saline 1:1:18. Plasma triglyceride levels were assayed following twelve hours fasting using an enzymatic reagent (Sigma™).
# [3] = system: ApoE−/− mice; assay: Size of atherosclerotic plaques in the aorta of ApoE−/− mice
# Experimental: ApoE knock-out (ApoE^−/−) mice are known to spontaneously develop atherosclerosis, which may be enhanced by a high-fat diet. Twelve- to fourteen-week-old male and female ApoE ApoE^−/− mice on a C57B1/6 background were fed a high-fat diet (Takland adjusted calories, Western-type diet: 2.1% fat, 15% cholesterol, 19.5% casein) for 12 weeks.
# Blood samples were collected in capillary tubes following twelve hours of fasting, and immediately centrifuged for plasma removal. Plasma samples were assayed for total cholesterol using conventional colorimetric assays. Mice were then sacrificed, and their aorta were extracted and examined for the presence and size of atherosclerotic lesions (plaques).
# as §2
# [4] = system: ApoE−/− mice; assay: LDL cholesterol levels in ApoE−/− mice (Friedewald formula); details: high-fat diet, 20 IP injections of 5 mg/kg
# Experimental: as §1
# Blood samples were collected in capillary tubes following twelve hours of fasting, and immediately centrifuged for plasma removal. Plasma samples were assayed for total cholesterol using conventional colorimetric assays.
# as §2
# LDLc=TC−triglycerides levels/5-HDLc
# Statistical analysis was by ANOVA test (ANalysis Of VAriance between groups).
# [5] = system: SD/Hsd male rats, surgically induced infarct; assay: Echocardiography before and 7 days after LAD ligation; details: for LVEDD (left ventricular end-diastolic diameter) / LVESD (left ventricular end-systolic diameter) / SF (shortening fraction): CBD group
# Experimental: In the following experiment 14 SD/Hsd male rats weighing 275-350 g were used.
# Rats were anesthetized with ketamine (10%): xylazine (2%), 0.85:0.15 IM 0.1 ml/kg. Animals were intubated and ventilated with a small animal respirator (Harvard Sc.). The heart was exposed via left sternotomy and the LAD was reversibly occluded for 30 minutes using a snare fashioned from an encircling silk ligature and a section of 5 French feeding tube. Coronary occlusion and reperfusion were verified by visual inspection. Following reperfusion the released ligature was left in situ. The chest was then closed in layers using uninterrupted sutures. Rats were extubated, received 30-50 cc saline subcutaneously to replace lost body fluids, and were treated with Rymadil (5 mg/kg, i.p.) analgesia for 3 days. […] The drug and the vehicle solutions were prepared in separate laboratories, ensuring that the staff (e.g. echocardiography and pathology) was blinded to the treatment arm. After 7 days, animals were re-anesthetized and ventilated as described above. The LAD was permanently re-occluded, and the heart harvested for further analysis.
# Rats were anesthetized with Ketamine (10%):Xylasine (2%), 0.85:0.15 IM 0.1 ml/kg and the chest cavity was shaved. Echo was carried out prior to surgery and 1 week after, prior to sacrifice of the animals.
# Echo imaging was performed using a GE Vivid3 platform, equipped with a 13 MHz linear epiaortic transducer (General Electric, Haifa, Israel). The probe was positioned in a left parasternal position, and 2D imaging of the heart in the short axis was performed using a high frame rate. This image was used to guide an M-mode cursor down the medial axis of the left ventricle. Measurements were performed in triplicates using the leading edge convention for myocardial borders.
# The following parameters were measured: Left ventricular end-diastolic diameter (LVEDD) Left ventricular end-systolic diameter (LVESD); anterior wall thickness in diastole and systole (AWTd, AWTs); and Heart rate (HR).
# Shortening fraction (SF) was calculated using the above variables.
# [6] = system: SD/Hsd male rats, surgically induced infarct; assay: Infarct (scar) size after LAD ligation, Evans blue/TTC staining and planimetry; format: in vivo
# [7] = Day 7 after LAD ligation, 5 mg/kg IP daily
substance,measurement,setting,value
Cannabidiol [CBD],inflammation in heart histology,"[1]; FIG. 4B, animal treated with CBD",almost total lack of inflammation
same,granulation tissue formation with early collagen deposition vs control,[1]; Masson trichrome staining,similar; also recorded: did not affect
same,inflammatory infiltrate grade (leukocytes infiltrating the border of the infarcted zone),"[1]; graded by pathologist, control animals 2-3",1+ or nullnil (0)
same,lowering of plasma triglyceride levels compared with control-treated mice,[2],59%
same,"atherosclerotic plaques, average % of the aorta area","[3]; first experiment, 12 CBD-treated mice, control 5.5%",3.18%
same,"plaque area, % of the total aorta area","[3]; second experiment, control 10.6%",5.09%
same,lowering of LDL levels vs control,[4],17%
same,LDL cholesterol level,[4]; calculated by Friedewald formula,1300 mg/dL
same,LVEDD (left ventricular end-diastolic diameter),[5]; Day 0 (baseline),0.70 ± 0.06 mm
same,LVESD (left ventricular end-systolic diameter),[5]; Day 0 (baseline),0.36 ± 0.08 mm
same,SF (shortening fraction),[5]; Day 0 (baseline),48.27±8.6%
same,LVEDD (left ventricular end-diastolic diameter),[5]; [7],0.72 ± 0.05 mm
same,LVESD (left ventricular end-systolic diameter),[5]; [7],0.43 ± 0.07 mm
same,SF (shortening fraction),"[5]; Day 7 after LAD ligation, 5 mg/kg IP daily, 5 mg/kg",39.7±8.22%
same,LV function in M mode echocardiography,"[5]; FIG. 4D, CBD-treated animal",preserved LV function
same,% infarct size,[6]; individual animals of CBD-treated group,16.3% and 15.3% and 14.6% and 13.9% and 6.5% and 7.5% and 7.6% (2×) and 8.1% and 7.8%
same,mean infarct size as percent of area at risk,"[6]; rats, 5 mg/kg IP 1 h before surgery and daily, 7 days, control 28.2±7.0%",9.6±3.9%
